Laboratory results as given in PMC11822212, “High-throughput screening identifies Aurora kinase B as a critical therapeutic target for Merkel cell carcinoma” (Nature Communications, 2025).
Where “and” joins values, the source holds several entries; their conditions need not be identical. Equal values may be shown once. Read-outs that look alike come from different tables or passages of the source.

Assays:
Test in all cases: qHTS cell viability (CellTiter-Glo, 72 h; primary and follow-up small molecule screen)
Assay type in all cases: cell-based, human
[1] = system: MKL-1 cells (VP-MCC)
[2] = system: WAGA cells (VP-MCC)
[3] = system: MCC26 cells (VN-MCC)
[4] = system: MCC13 cells (VN-MCC)
[5] = system: MKL-2 cells (VP-MCC)
[6] = system: UISO cells (VN-MCC)
[7] = follow-up screen, MKL-1, replicate 1
[8] = follow-up screen, MKL-1, replicate 2
[9] = follow-up screen, MKL-1, replicate 3
[10] = follow-up screen, WAGA, replicate 1
[11] = follow-up screen, WAGA, replicate 2
[12] = follow-up screen, WAGA, replicate 3
[13] = follow-up screen, MCC26, replicate 1
[14] = follow-up screen, MCC26, replicate 2
[15] = follow-up screen, MCC26, replicate 3
[16] = follow-up screen, MCC13, replicate 1
[17] = follow-up screen, MCC13, replicate 2
[18] = follow-up screen, MCC13, replicate 3
[19] = follow-up screen, MKL-2, replicate 1
[20] = follow-up screen, MKL-2, replicate 2
[21] = follow-up screen, MKL-2, replicate 3
[22] = follow-up screen, UISO, replicate 1
[23] = follow-up screen, UISO, replicate 2
[24] = follow-up screen, UISO, replicate 3

| SMILES | Area under the dose-response curve (AUC) MKL-1 Replicate 1 [1, 7] | Area under the dose-response curve (AUC) MKL-1 Replicate 2 [1, 8] | Area under the dose-response curve (AUC) MKL-1 Replicate 3 [1, 9] | Area under the dose-response curve (AUC) WAGA Replicate 1 [2, 10] | Area under the dose-response curve (AUC) WAGA Replicate 2 [2, 11] | Area under the dose-response curve (AUC) WAGA Replicate 3 [2, 12] | Area under the dose-response curve (AUC) MCC26 Replicate 1 [3, 13] | Area under the dose-response curve (AUC) MCC26 Replicate 2 [3, 14] | Area under the dose-response curve (AUC) MCC26 Replicate 3 [3, 15] | Area under the dose-response curve (AUC) MCC13 Replicate 1 [4, 16] | Area under the dose-response curve (AUC) MCC13 Replicate 2 [4, 17] | Area under the dose-response curve (AUC) MCC13 Replicate 3 [4, 18] | Area under the dose-response curve (AUC) MKL-2 Replicate 1 [5, 19] | Area under the dose-response curve (AUC) MKL-2 Replicate 2 [5, 20] | Area under the dose-response curve (AUC) MKL-2 Replicate 3 [5, 21] | Area under the dose-response curve (AUC) UISO Replicate 1 [6, 22] | Area under the dose-response curve (AUC) UISO Replicate 2 [6, 23] | Area under the dose-response curve (AUC) UISO Replicate 3 [6, 24] | other results |
| --- | --- | --- | --- | --- | --- | --- | --- | --- | --- | --- | --- | --- | --- | --- | --- | --- | --- | --- | --- |
| CO/C1=C\C(C)=C\[C@@H](C)[C@@H](O)[C@@H](C)C/C(C)=C/C=C/[C@H](OC)[C@@H]([C@@H](C)[C@@H](O)[C@H](C)[C@@]2(O)C[C@@H](O)[C@H](C)[C@@H](C(C)C)O2)OC1=O [Bafilomycin A1] | 341.8 | 384.5 | 316.5 | 341.4 | 394.8 | 342.5 | 325.4 | 330.5 | 331.3 | 343.3 | 351.4 | 328.2 | 338.8 | 333.5 | 368.3 | 306.5 | 264.4 | 311.8 | – |
| COc1ccc2cc3[n+](cc2c1OC)CCc1cc2c(cc1-3)OCO2 [Berberine] | 311.8 | 310.8 | 306.9 | 314.6 | 371.3 | 307.0 | 384.2 | 304.3 | 382.1 | 398.2 | 416.5 | 443.1 | 282.0 | 271.5 | 295.9 | 307.5 | 333.0 | 307.0 | – |
| C[C@H]1CCC/C=C/[C@@H]2C[C@H](OC(=O)CN(C)C)C[C@H]2[C@H](O)/C=C/C(=O)O1 [Breflate] | – | – | – | – | – | – | – | – | – | – | – | – | – | – | – | – | – | – | Area under the dose-response curve (AUC) MKL-1 Replicate 1 [1]: 284.7; Area under the dose-response curve (AUC) MKL-1 Replicate 2 [1]: 297.0; Area under the dose-response curve (AUC) MKL-1 Replicate 3 [1]: 286.8; Area under the dose-response curve (AUC) WAGA Replicate 1 [2]: 298.7; Area under the dose-response curve (AUC) WAGA Replicate 2 [2]: 274.6; Area under the dose-response curve (AUC) WAGA Replicate 3 [2]: 278.0; Area under the dose-response curve (AUC) MCC26 Replicate 1 [3]: 324.6; Area under the dose-response curve (AUC) MCC26 Replicate 2 [3]: 334.5; Area under the dose-response curve (AUC) MCC26 Replicate 3 [3]: 272.7; Area under the dose-response curve (AUC) MCC13 Replicate 1 [4]: 301.4; Area under the dose-response curve (AUC) MCC13 Replicate 2 [4]: 313.0; Area under the dose-response curve (AUC) MCC13 Replicate 3 [4]: 291.5; Area under the dose-response curve (AUC) MKL-2 Replicate 1 [5]: 314.0; Area under the dose-response curve (AUC) MKL-2 Replicate 2 [5]: 292.1; Area under the dose-response curve (AUC) MKL-2 Replicate 3 [5]: 266.7; Area under the dose-response curve (AUC) UISO Replicate 1 [6]: 287.6; Area under the dose-response curve (AUC) UISO Replicate 2 [6]: 297.1; Area under the dose-response curve (AUC) UISO Replicate 3 [6]: 295.8 |
| C[C@]12CC[C@H](O)C[C@H]1CC[C@@H]1[C@@H]2CC[C@]2(C)[C@@H](c3ccc(=O)oc3)CC[C@]12O [Bufalin] | – | – | – | – | – | – | – | – | – | – | – | – | – | – | – | – | – | – | Area under the dose-response curve (AUC) [1]: 317.9 and 310.4 and 298.2; Area under the dose-response curve (AUC) [2]: 311.5 and 289.3 and 286.6; Area under the dose-response curve (AUC) [3]: 270.7 and 302.4 and 244.7; Area under the dose-response curve (AUC) [4]: 246.2 and 243.7 and 237.7; Area under the dose-response curve (AUC) [5]: 316.9 and 287.6 and 264.0; Area under the dose-response curve (AUC) [6]: 235.9 and 234.7 and 201.8 |
| CCCNC(=O)[C@H]1O[C@@H]1C(=O)N[C@H](C(=O)N1CCC[C@H]1C(=O)OC)C(C)CC (stereo partly drawn) [CA-074 Me] | – | – | – | – | – | – | – | – | – | – | – | – | – | – | – | – | – | – | Area under the dose-response curve (AUC) MKL-1 Replicate 1 [1]: 343.4; Area under the dose-response curve (AUC) MKL-1 Replicate 2 [1]: 329.7; Area under the dose-response curve (AUC) MKL-1 Replicate 3 [1]: 317.3; Area under the dose-response curve (AUC) WAGA Replicate 1 [2]: 383.1; Area under the dose-response curve (AUC) WAGA Replicate 2 [2]: 375.3; Area under the dose-response curve (AUC) WAGA Replicate 3 [2]: 378.5; Area under the dose-response curve (AUC) MCC26 Replicate 1 [3]: 401.2; Area under the dose-response curve (AUC) MCC26 Replicate 2 [3]: 420.5; Area under the dose-response curve (AUC) MCC26 Replicate 3 [3]: 371.8; Area under the dose-response curve (AUC) MCC13 Replicate 1 [4]: 449.3; Area under the dose-response curve (AUC) MCC13 Replicate 2 [4]: 470.8; Area under the dose-response curve (AUC) MCC13 Replicate 3 [4]: 430.6; Area under the dose-response curve (AUC) MKL-2 Replicate 1 [5]: 305.9; Area under the dose-response curve (AUC) MKL-2 Replicate 2 [5]: 306.4; Area under the dose-response curve (AUC) MKL-2 Replicate 3 [5]: 348.6; Area under the dose-response curve (AUC) UISO Replicate 1 [6]: 368.5; Area under the dose-response curve (AUC) UISO Replicate 2 [6]: 355.5; Area under the dose-response curve (AUC) UISO Replicate 3 [6]: 334.3 |
| Cc1nc2ccc(-n3ncc(C(=O)c4cc5ccccc5[nH]4)c3N)cc2[nH]1 [CH5183284 (Debio-1347)] | – | – | – | – | – | – | – | – | – | – | – | – | – | – | – | – | – | – | Area under the dose-response curve (AUC) [1]: 508.7 and 488.2 and 500.7; Area under the dose-response curve (AUC) [2]: 493.1 and 498.3 and 457.6; Area under the dose-response curve (AUC) [3]: 405.6 and 395.0 and 403.7; Area under the dose-response curve (AUC) [4]: 509.3 and 491.7 and 491.1; Area under the dose-response curve (AUC) [5]: 485.9 and 459.2 and 468.2; Area under the dose-response curve (AUC) [6]: 433.7 and 424.4 and 430.0 |
| CC[C@@]1(O)C(=O)OCc2c1cc1n(c2=O)Cc2cc3ccccc3nc2-1 [Camptothecin] | 168.7 | 185.9 | 170.7 | 164.4 | 180.7 | 159.3 | 203.3 | 207.4 | 184.6 | 224.5 | 221.7 | 254.2 | 160.6 | 161.3 | 224.5 | 151.6 | 176.2 | 177.2 | – |
| COCc1c(C(C)C)nc(C(C)C)c(/C=C/[C@@H](O)C[C@@H](O)CC(=O)O)c1-c1ccc(F)cc1 [Cerivastatin sodium] | 337.1 | 326.8 | 335.0 | 385.6 | 358.6 | 363.6 | 312.2 | 285.4 | 322.6 | 319.0 | 316.5 | 320.7 | 362.8 | 331.4 | 356.5 | 255.3 | 261.7 | 240.8 | – |
